Literature values in patent US7671051B2, “Inhibitors of 11-β-hydroxy steroid dehydrogenase type 1” (Biovitrum AB, priority 2001, dated 2010).

System: bone nodule formation

CC1(C)[C@@H](OC(=O)CCC(=O)O)CC[C@]2(C)[C@H]3C(=O)C=C4[C@@H]5C[C@@](C)(C(=O)O)CC[C@]5(C)CC[C@@]4(C)[C@]3(C)CC[C@@H]12 [carbenoxolone]
negative effect (of glucocorticoid) on bone nodule formation: blocked
